Measured values: ChEMBL document CHEMBL1157764, “Conserved high activity binding peptides are involved in adhesion of two detergent-resistant membrane-associated merozoite proteins to red blood cells during invasion” (J Med Chem, 2010)
Activity calls are given as the source filed them. No cut-off for these calls is given here.

Experiments:
Plasmodium falciparum [1] = assay: Antiplasmodial activity against Plasmodium falciparum FCB2 assessed as inhibition of merozoite invasion of human RBCs at 100 uM after 18 hrs using hydroethidine staining by flow cytometry; assay type: functional; conditions: FCB2, 18 h
Homo sapiens [2] = species: Homo sapiens; assay: Binding affinity to RBC membrane receptor in 1 mg/mL trypsin pretreated human RBCs relative to untreated RBCs
Homo sapiens [3] = species: Homo sapiens; assay: Binding affinity to RBC membrane receptor in 150 uU/mL neuraminidase pretreated human RBCs relative to untreated RBCs
Homo sapiens [4] = species: Homo sapiens; assay: Binding affinity to RBC membrane receptor in 1 mg/mL chymotrypsin pretreated human RBCs relative to untreated RBCs
[5] = Binding affinity to RBC membrane receptor in human RBCs assessed as dissociation constant by gamma counter
Homo sapiens [6] = species: Homo sapiens; assay: Binding affinity to RBC membrane receptor in human RBCs assessed as specific binding activity measured as ratio of specifically bound peptide/added peptide by gamma counter
Plasmodium falciparum [7] = assay: Antiplasmodial activity against Plasmodium falciparum FCB2 assessed as inhibition of merozoite invasion of human RBCs at 200 uM after 18 hrs using hydroethidine staining by flow cytometry; assay type: functional; conditions: FCB2, 18 h
Homo sapiens [8] = species: Homo sapiens; assay: Binding affinity of radio labeled compound to 47 kDa RBC membrane receptor in human RBCs cross-linked with bis-(sulfosuccinimidyl)suberate by autoradiography using SDS-PAGE
Homo sapiens [9] = species: Homo sapiens; assay: Binding affinity of radio labeled compound to 85 kDa RBC membrane receptor in human RBCs cross-linked with bis-(sulfosuccinimidyl)suberate by autoradiography using SDS-PAGE
Homo sapiens [10] = species: Homo sapiens; assay: Binding affinity of radio labeled compound to 68 kDa RBC membrane receptor in human RBCs cross-linked with bis-(sulfosuccinimidyl)suberate by autoradiography using SDS-PAGE
Homo sapiens [11] = species: Homo sapiens; assay: Binding affinity of radio labeled compound to 78 kDa RBC membrane receptor in human RBCs cross-linked with bis-(sulfosuccinimidyl)suberate by autoradiography using SDS-PAGE
Homo sapiens [12] = species: Homo sapiens; assay: Binding affinity of radio labeled compound to 170 kDa RBC membrane receptor in human RBCs cross-linked with bis-(sulfosuccinimidyl)suberate by autoradiography using SDS-PAGE
Plasmodium falciparum [13] = assay: Antiplasmodial activity against Plasmodium falciparum FCB2 assessed as inhibition of merozoite invasion of human RBCs at 1.85 mg/mL after 18 hrs using hydroethidine staining by flow cytometry; assay type: functional; set-up: scale not given: the % may be the effect or the level left
Plasmodium falciparum [14] = assay: Antiplasmodial activity against Plasmodium falciparum FCB2 assessed as inhibition of merozoite invasion of human RBCs at 1.9 mg/mL after 18 hrs using hydroethidine staining by flow cytometry; assay type: functional; set-up: scale not given: the % may be the effect or the level left

Activity (Homo sapiens [2]) [%]	Activity (Homo sapiens [3]) [%]	Activity (Homo sapiens [4]) [%]	Kd [5] [µM]	Activity (Homo sapiens [6]) [%]	Activity (Homo sapiens [8])	Activity (Homo sapiens [9])	Activity (Homo sapiens [10])	Activity (Homo sapiens [11])	Activity (Homo sapiens [12])	Compound	inhibition at 100 µM (Plasmodium falciparum [1]) [%]	inhibition at 200 µM (Plasmodium falciparum [7]) [%]	Activity (Plasmodium falciparum [13]) [%]	Activity (Plasmodium falciparum [14]) [%]
55	23	37	0.25	> 2						CC(C)C[C@H](NC(=O)[C@H](CCCCN)NC(=O)[C@H](Cc1ccc(O)cc1)NC(=O)[C@H](CC(C)C)NC(=O)CNC(=O)[C@H](CC(=O)O)NC(=O)[C@H](CO)NC(=O)[C@H](CO)NC(=O)[C@H](Cc1ccc(O)cc1)NC(=O)[C@H](CCCCN)NC(=O)[C@H](CC(C)C)NC(=O)[C@H](Cc1cnc[nH]1)NC(=O)[C@H](CO)NC(=O)[C@H](CO)NC(=O)[C@@H]1CCCN1C(=O)[C@@H](NC(=O)[C@H](CCCCN)NC(=O)[C@H](CS)NC(=O)[C@@H](NC(=O)[C@@H](N)CCCCN)[C@H](C)O)C(C)C)C(=O)O	45	13		
29	120	90	0.8	> 2	Active	Active	Active	Active	Active	CC[C@H](C)[C@H](NC(=O)[C@H](Cc1cnc[nH]1)NC(=O)[C@H](CC(N)=O)NC(=O)[C@H](CCCNC(=N)N)NC(=O)[C@@H](NC(=O)[C@@H](N)Cc1ccc(O)cc1)[C@@H](C)CC)C(=O)N[C@@H](CC(=O)O)C(=O)N[C@@H](CC(C)C)C(=O)N[C@@H](CC(=O)O)C(=O)N[C@@H](Cc1ccccc1)C(=O)N1CCC[C@H]1C(=O)N[C@@H](Cc1ccccc1)C(=O)N[C@@H](CC(=O)O)C(=O)N[C@H](C(=O)N[C@@H](CC(=O)O)C(=O)N[C@H](C(=O)N[C@H](C(=O)N[C@@H](CCCCN)C(=O)N[C@@H](CC(C)C)C(=O)N[C@@H](Cc1ccc(O)cc1)C(=O)O)C(C)C)[C@H](C)O)[C@H](C)O	76	-3		
50	25	87	0.51	> 2		Active		Active		CC[C@H](C)[C@H](NC(=O)[C@H](CCCNC(=N)N)NC(=O)[C@H](CCC(=O)O)NC(=O)[C@H](Cc1cnc[nH]1)NC(=O)[C@@H](NC(=O)[C@H](CC(C)C)NC(=O)[C@H](Cc1c[nH]c2ccccc12)NC(=O)[C@H](CCCCN)NC(=O)[C@H](CCCCN)NC(=O)[C@H](CCCCN)NC(=O)[C@H](CCCCN)NC(=O)[C@H](CC(N)=O)NC(=O)[C@H](C)NC(=O)[C@H](CC(=O)O)NC(=O)[C@@H](N)C(C)C)[C@@H](C)O)C(=O)N[C@@H](CC(C)C)C(=O)N[C@@H](CCCCN)C(=O)N[C@@H](CCCCN)C(=O)N[C@@H](CC(C)C)C(=O)N[C@@H](CCC(N)=O)C(=O)N[C@@H](Cc1ccc(O)cc1)C(=O)O	37	11		
										CCN(CC)CCCC(C)Nc1ccnc2cc(Cl)ccc12 (configuration not stated) [CHLOROQUINE]			68	
										O=C(O)CN(CCOCCOCCN(CC(=O)O)CC(=O)O)CC(=O)O [EGTAZIC ACID]				81
87	12	33	1.2	> 2		Active		Active		H-ASLKETMNKIDTIEKKIEEFY-OH	40	8		
105	13	59	0.8	> 2		Active		Active		H-DNNKECLIDPLDVQKNLLNEY-OH	36	4		
31	5	116	0.85	> 2						H-FVLAPDEMVYLFYHGNEKKN-OH	49	9		
43	68	7	1.7	> 2		Active		Active		H-NYRRRKRITELRKILVEKLR-OH	47	15		
18	55	94	0.73	> 2		Active		Active		H-RLKENKDYDVVSSIIQHLDN-OH	42	7		
83	17	31	0.9	> 2		Active		Active		H-YFFEYELRKKTQSFRNKNSI-OH	40	10		
